Read-outs that look alike come from different tables or passages of the source. Each block holds one molecule with its values, some of them ahead of it.
Assays:
[1] = target: T1, Aurora-A (Homo sapiens, UniProt O14965); test: FastStep SPR direct binding of compounds to immobilized Aurora-A; set-up: His-tag (N); host or cells: Escherichia coli BL21(DE3); settings: for Kd: SPR, Aurora-A immobilized on COOH5 sensorchip, affinities from Scatchard plots, ± standard error of best-fit, low affinity given as >100 μM
T1 sequence (O14965 1-403): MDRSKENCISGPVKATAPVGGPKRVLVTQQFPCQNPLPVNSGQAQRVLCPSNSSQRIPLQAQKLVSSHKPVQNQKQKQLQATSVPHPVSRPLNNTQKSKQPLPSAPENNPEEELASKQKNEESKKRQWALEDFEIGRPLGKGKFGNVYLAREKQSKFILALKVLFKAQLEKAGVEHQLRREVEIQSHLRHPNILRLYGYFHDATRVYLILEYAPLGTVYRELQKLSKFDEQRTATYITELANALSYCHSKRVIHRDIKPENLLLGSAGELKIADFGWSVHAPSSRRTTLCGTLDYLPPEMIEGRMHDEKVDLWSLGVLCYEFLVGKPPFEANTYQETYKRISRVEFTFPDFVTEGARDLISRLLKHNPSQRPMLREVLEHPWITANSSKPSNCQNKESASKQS
Protocol: We evaluated the interaction of the selected compounds with Aurora-A immobilized on a COOH5 sensorchip by FastStep Surface Plasmon Resonance (SPR) experiments. Sensorgrams were obtained using Aurora-A as ligand and injecting increasing concentrations of the inhibitors (see Materials and Methods) as analytes in running buffer (Figure 3A).
SPR experiments were carried out using a SensiQ Pioneer apparatus. The sensor chip (COOH5, with a hydrogel-based sensing surface endowed with high binding capacity) was chemically activated by a 35 μl injection of a 1:1 mixture of 200 mM N-ethyl-N’-(3-[…]) carbodiimide and 50 mM N-hydroxysuccinimide at a flow rate of 5 μl/min. Aurora-A was immobilized on the activated sensor chip via amine coupling. The immobilization was carried out in 20 mM sodium acetate at pH 4.5; the remaining ester groups were blocked by injecting 1 M ethanolamine hydrochloride (35 μl).
Compounds for testing were purchased from Ambinter (Paris, France). […] Compounds were injected onto the sensor chip at a constant flow in FastStep injection experiments, in order to rapidly obtain information on the binding of the analyte at different concentrations, with a single dissociation phase. […] At least two independent experiments were performed and averaged for each series of injections. The interaction of immobilized Aurora-A ligand with the inhibitor compounds was detected through mass concentration-dependent changes in the refractive index on the sensor chip surface, expressed as RUs.

[2] = tested on: U2OS osteosarcoma cell line; test: Immunofluorescence of mitotic spindle structure in synchronized U2OS cells; type: cell-based, human; settings: 10 μM, added 6 hours after thymidine release, fixed after further 4 hours, alpha-tubulin staining
Protocol: (§1) We next wished to examine how compounds displaying inhibitory activity on the Aurora-A/TPX2 complex formation in vitro affected mitosis in human cells. […] C20 and C23 were tested in the U2OS osteosarcoma cell line, in which we previously characterized significant mitotic defects after Alisertib-dependent Aurora-A inhibition. Briefly, U20S cells were arrested at the G1/S transition by thymidine treatment, released in fresh medium to progress through S and G2 phases, then treated with either C20 or C23 (10 μM) 6 hours after thymidine release (Figure 6A). […] Defects were scored in prometa- and metaphases and included completely disorganized spindles (Figure 6A, second panel), or spindles with supernumerary poles (Figure 6A, third and fourth panel), as typically observed under impaired Aurora-A function. To directly assess the extent of Aurora-A activation we measured Aurora-A auto-phosphorylation on Thr 288. […]
(§2) The human U2OS osteosarcoma cell line (ATCC: HTB-96) was grown at 37°C in a 5% CO2 atmosphere in DMEM, supplemented with 10% fetal bovine serum. […] After further 4 hours cells were harvested and analyzed. […]
(§3) Cells grown on poly-lysine-coated coverslips were fixed with cold methanol, 6 min at -20°C. […] Samples were analyzed using a Nikon Eclipse 90i microscope equipped with a Qicam Fast 1394 CCD camera (QImaging). […]

[3] = tested on: p-Thr288-Aurora-A; test: Immunofluorescence of Aurora-A auto-phosphorylation on Thr 288 in U2OS prometaphases; type: cell-based, human; settings: thymidine arrest/release, monastrol added 2 hours before fixation
Protocol: as §1, §2, §3

[4] = target: T2, Aurora-A/TPX2 complex (Homo sapiens, UniProt O14965); test: SPR competition between GST-TPX2-1-43 and compounds for Aurora-A binding; settings: for Interference with TPX2 binding to Aurora-A (in words): SPR competition
T2 construct: His-tag (N); host or cells: Escherichia coli BL21(DE3)
T2 sequence (O14965 1-403): T1 sequence (O14965 1-403)
Protocol: (§4) TPX2 in running buffer was injected at different concentrations (ranging from 10 nM to 5 μM), in order to determine the affinity constant of the interaction between Aurora-A and TPX2 and the conditions of the competition experiments (flow rate= 30 μl/min). […] IC50 were calculated on the basis of the RU value at each inhibitor concentration (10 sec after the end of each association sensorgram) since TPX2 binding signal decreases by increasing inhibitor concentration. Both rapid binding and rapid dissociation of inhibitors were subtracted from the sensorgrams.

[5] = target: T1, Aurora-A; test: SPR binding of GST-TPX2-1-43 or GST alone to immobilized Aurora-A; settings: GST alone as control analyte
Protocol: as §4

Molecule: O=C1Cc2cc(S(=O)(=O)Nc3ccccc3C(=O)O)ccc2N1 [C06]
Kd ([1]; Kd): > 100 µM

Molecule: O=C1Nc2ccccc2/C1=N/NC(=O)c1ccc2ccccc2n1 [C02]
Kd ([1]; read-out: Kd): 42 ± 9 µM | IC50 ([4]; read-out: IC50): 40 ± 10 µM

Molecule: CN1/C(=C\c2cccc3[nH]ccc23)C(=O)c2ccccc2S1(=O)=O [C08]
Kd ([1]; Kd): 80 ± 30 µM

Molecule: O=C1Nc2ccccc2/C1=N\NC(=O)c1cccc2ccccc12 [C01]
Kd ([1]; Kd): > 100 µM

Molecule: O=C(Nc1cccc2ncccc12)c1ccc2c(c1)OCCCO2 [C03]
Kd ([1]; Kd): > 100 µM

Molecule: O=C1Nc2ccccc2/C1=N\NC(=O)C1COc2ccccc2O1 (centres unmarked) [C04]
Kd ([1]; Kd): 100 µM

Molecule: Cc1ccc2c(c1)/C(=N\NC(=O)C1COc3ccccc3O1)C(=O)N2 (centres unmarked) [C07]
Kd ([1]; Kd): > 100 µM

Molecule: COc1cc(Nc2ncc3c(n2)-c2ccc(Cl)cc2C(c2c(F)cccc2OC)=NC3)ccc1C(=O)O [Alisertib, reference compound]
Interference with TPX2 binding to Aurora-A (in words) ([4]; 500 nM GST-TPX2-1-43, Supplementary Figure 2): does not interfere with TPX2 binding to Aurora-A | Interference with TPX2 binding to Aurora-A (in words) ([4]; 1 μM GST-TPX2-1-43): does not compete with TPX2 binding

Molecule: COc1cc(NC(=S)NC(=O)c2cccc(F)c2)ccc1NC(=O)c1cc2ccccc2o1 [C20]
Kd ([1]; Kd): 30 ± 15 µM | Mitotic spindle defects in prometa- and metaphases [2]: aberrant mitotic spindles | p-Thr288-Aurora-A signal compared to controls [3]: highly significant reduction | IC50 [4]: 20 ± 10 µM

Molecule: O=C1Nc2ccc(F)cc2/C1=N\NC(=O)c1ccc2c(c1)OCO2 [C05]
Kd ([1]; Kd): > 100 µM

Molecule: Cc1oc2cc(OCC(N)=O)ccc2c(=O)c1-c1ccc(Cl)cc1 [C09]
Kd ([1]; Kd): 80 ± 15 µM

Molecule: GST: Recombinant GST protein alone, from Sigma (SRP5348), control analyte
Kd [5]: > 5 µM

Second part, led by results:

Kd ([1]; read-out: Kd): 12 ± 5 µM | IC50 ([4]; read-out: IC50): 30 ± 8 µM
Molecule: COc1ccc(CNC(=O)C(C)Oc2ccc3c(c2)c2ccnc4c5ccccc5c(=O)n3c24)cc1 (centres unmarked) [C23]
Mitotic spindle defects in prometa- and metaphases [2]: aberrant mitotic spindles | p-Thr288-Aurora-A signal compared to controls [3]: highly significant reduction

Kd ([1]; Kd): > 100 µM
Molecule: CC1=C(C(=O)Nc2cccc(F)c2)[C@H](c2ccccn2)C2=C(C[C@H](c3ccccc3)CC2=O)N1 [C16]

Kd ([1]; read-out: Kd): 15 ± 6 µM | IC50 ([4]; read-out: IC50): > 100 µM
Molecule: CC1=C(/C(O)=N/c2ccc(F)cc2F)[C@H](c2cccnc2)C2=C(C[C@@H](c3ccccc3)CC2=O)N1 [C22]
Interference with TPX2 binding to Aurora-A (in words) ([4]; 1 μM GST-TPX2-1-43): did not interfere with the formation of the Aurora-A/TPX2 complex

Kd ([1]; Kd): > 100 µM | Aurora-A binding (in words) ([1]; SPR direct binding): no Aurora-A binding properties | IC50 [4]: > 100 µM
Molecule: O=C(Nc1ccc2c(c1)CN(C(=O)c1ccco1)CC2)c1ccc(-c2ccccc2)cc1 [C12]
Interference with TPX2 binding to Aurora-A (in words) ([4]; 1 μM GST-TPX2-1-43): did not influence the Aurora-A/TPX2 complex formation

Kd ([1]; Kd): > 100 µM
Molecule: CC1=NC2=C(C(=O)CC(c3cccs3)C2)C(c2ccccn2)C1C(=O)Nc1ccc(F)cc1 (centres unmarked) [C17]

Kd ([1]; Kd): > 100 µM
Molecule: O=C(NCCOc1ccc(-c2ccc(F)cc2)nn1)C1c2ccccc2Oc2ccccc21 [C14]

Kd ([1]; Kd): > 100 µM
Molecule: CCn1c(NC(=O)CCn2c(-c3ccc(OC)cc3)n[nH]c2=S)nc2ccccc21 [C13]

Kd ([1]; Kd): > 100 µM
Molecule: COc1cc(/C=C2\C(=O)Nc3ccccc32)c(Br)cc1OCc1ccccc1C#N [C19]

Kd ([1]; Kd): > 100 µM
Molecule: O=C(NCC1Cc2cccc(-c3ccncc3)c2O1)c1ccccc1F (centres unmarked) [C11]

Kd ([1]; read-out: Kd): > 100 µM
Molecule: CC1=NC2=C(C(=O)CC(c3cccs3)C2)C(c2ccccn2)C1C(=O)Nc1cccc(F)c1 (centres unmarked) [C18]

Kd ([1]; Kd): > 100 µM
Molecule: CC1=NC2=C(C(=O)CC(c3ccccc3)C2)C(c2ccccn2)C1C(=O)Nc1ccc(F)cc1 (centres unmarked) [C15]

Kd ([1]; Kd): > 100 µM
Molecule: CNC(=O)C1CN(C(=O)c2ccc3ccccc3c2)c2ccccc2O1 (centres unmarked) [C10]

Kd ([1]; read-out: Kd): 12 ± 6 µM | IC50 ([4]; read-out: IC50): 40 ± 10 µM
Molecule: CC(Oc1ccc2c(c1)c1ccnc3c4ccccc4c(=O)n2c13)C(=O)NCc1ccc2c(c1)OCO2 (centres unmarked) [C25]

Kd ([1]; Kd): > 100 µM
Molecule: O=C(COc1ccc2[nH]c3ccccc3c(=O)c2c1)N1c2ccccc2OCC1c1ccccc1 (centres unmarked) [C21]

Kd ([1]; Kd): > 100 µM
Molecule: COc1ccc(-c2n[nH]c(=S)n2CCC(=O)Nc2ccc3nc(N4CCCC4)sc3c2)cc1 [C24]
